Assay results published in ChEMBL document CHEMBL3600288, “Development of Selective Covalent Janus Kinase 3 Inhibitors” (J Med Chem, 2015).

Legend:
Type in all cases: ADME, organism-based
[1] = Oral bioavailability in Swiss albino mouse at 10 mg/kg; details: in vivo
Mus musculus [2] = experiment: AUClast in Swiss albino mouse at 2 mg/kg, iv; set-up: dose 2 mg/kg, time 0 - last, route intravenous; details: in vivo
[3] = Volume of distribution at steady state in Swiss albino mouse at 2 mg/kg, iv; details: in vivo, read-out: Vdss
Mus musculus [4] = experiment: AUClast in Swiss albino mouse at 10 mg/kg, po; set-up: dose 10 mg/kg, route oral, time 0 - last; details: in vivo
[5] = Tmax in Swiss albino mouse at 10 mg/kg, po; details: in vivo
[6] = Cmax in Swiss albino mouse at 2 mg/kg, iv; set-up: dose 2 mg/kg, route intravenous; details: in vivo
[7] = Cmax in Swiss albino mouse at 10 mg/kg, po; set-up: dose 10 mg/kg, route oral; details: in vivo

C=CC(=O)Nc1cccc(CNc2nc(Nc3ccc(N4CCN(C)CC4)cc3OC)ncc2Cl)c1
bioavailability [1]: 66% | AUClast (Mus musculus [2]): 241.3 h/ng/mL | Vd [3]: 18.4 L/kg | AUClast (Mus musculus [4]): 795.29 h/ng/mL | Tmax [5]: 30 min | Cmax [6]: 159 ng/mL | Cmax [7]: 204 ng/mL
